One compound from patent US7754773B2, “Composition and synthesis of new reagents for inhibition of HIV replication” (priority 2005, dated 2010) can be followed below.

The test system of experiment [1] is HIV-1 (X4-tropic HIV-1 variant (HIV-1LAI)). The experiment in a line: Dose-response of RT activity in HIV-1 infected H9 cells. The settings on record: H9 cells infected with HIV-1LAI; for RT activity / infectivity, dose response: 0, 1, 5, 10, 25 or 50 μM. The format is cell-based. On the procedure:
To evaluate the efficacy of Vif inhibitor 1 on RT activity, a dose-response experiment was conducted in infected H9 cells.
Briefly, H9 cells plated at 2×10^5 per well in a 24 well plate were treated overnight with DMSO, plus 0, 1, 5, 10, 25 or 50 μM Vif inhibitor 1 (all at 0.5% DMSO) then infected with HIV-1 (X4-tropic HIV-1 variant (HIV-1LAI)) at 2×10^5 cpm RT per well. All cells were maintained in the presence of DMSO or Vif inhibitor 1 for 14-21 days and viral replication monitored by measurement of reverse transcriptase activity in culture supernatants every second day. Calculation of % relative infectivity was determined on day 7, which was previously determined to be the peak of viral infectivity. Range correction involved fitting cpm data to a 2 parameter equation where the lower limit is 0, i.e. background correction, and the upper data limit is 100, i.e. the data is range corrected. Grafit software was used for the curve fit and calculation of the I.C.50 value.

The target of experiment [2] is T1, Vif (Human immunodeficiency virus type 1 group M subtype B, UniProt P12504).
T1 construct: pNL4-3 (Vif) was used at 50 fmol, and APOBEC3G at 15 fmol; expressed in transfected cells
The experiment in a line: Western blot of Vif in transfected 293T cell lysates. The format is cell-based, HIV-1. Conditions: 293T cells, pNL-Luc-E-R-, pVSV-G, APOBEC3G-HA; 3.125-50 μM; 24 hours post-drug. As for the experimental part:
(§1) To determine the effect of Vif inhibitor 1 on expression of Vif and APOBC3G, 293T cells were transfected with pNL-Luc-E-R-, pVSV-G, and 15 fmoles APOBEC3G-HA. 4 hours post-transfection, the cells were treated with 3.125, 6.25, 12.5, 25, 50 μM Vif inhibitor 1 or DMSO equivalent as a control. Twenty-four hours post-drug addition, 293T total cell lysates (15 ug) were prepared, and protein lysates examined for APOBEC3G, Vif and, cyclin T1.

For experiment [3], the system named is APOBEC3G. The experiment in a line: Western blot of APOBEC3G in transfected 293T cell lysates. The settings on record: 293T cells, pNL-Luc-E-R-, pVSV-G, APOBEC3G-HA; 3.125-50 μM; 24 hours post-drug. The class given is cell-based, human. On the procedure:
as §1

The subject of experiment [4] is pNL-Luc-E-R- virus. The experiment in a line: Infectivity of virus from treated producer cells on 293T cells. The format is cell-based, HIV-1. Conditions: 293T cells infected 48 hours with 1 ng virus; producer cells treated with 3.125-50 μM. As for the experimental part: Infectivity was determined by infecting 293T cells for 48 hours with 1 ng virus produced from the producer cells in the experiments shown in FIG. 21A. The infectivity of the sample of virus produced without APOBEC3G was normalized to 100%, and data was representative of three independent experiments.

Experiment [5] has as its system APOBEC3G. The experiment in a line: APOBEC3G-HA level co-expressed with pNL4-3-LucE-R-, Western blot. The class given is cell-based, human. Conditions: 3.75, 7.5, 15 or 30 fmoles APOBEC3G-HA; 5 uM. As for the experimental part: (§2) To evaluate the effect of Vif inhibitor 1 on levels of APOBEC3G and APOBEC3F proteins, a dose-response experiment was performed. pNL4-3-LucE-R- was co-expressed with 3.75, 7.5, 15, or 30 fmoles APOBEC3G-HA (or APOBEC3F-HA) in the absence (DMSO) or presence (5 uM) of Vif inhibitor 1. The pNL4-3-LucE-R- ΔVif with the same amounts of APOBEC3G or F in the presence of DMSO were used as controls. APOBEC3G or APOBEC3F expression was confirmed by Western blot using an α HA anti body, with cyclin T1 used as the internal control.

The test system of experiment [6] is APOBEC3F. The experiment in a line: APOBEC3F-HA level co-expressed with pNL4-3-LucE-R-, Western blot. The format is cell-based. Conditions: 3.75, 7.5, 15 or 30 fmoles APOBEC3F-HA; 5 uM. As for the experimental part: as §2
Experiment [7] addresses T1, Vif. The experiment in a line: Vif protein levels in H9 cells infected with pNL4-3Luc-E-R-. The format is cell-based, HIV-1. The settings on record: 12.5, 25 or 50 μM, 48 hours. As for the experimental part: To evaluate the effect of Vif inhibitor 1 on levels of Vif protein, H9 cells were infected with pNL4-3Luc-E-R- using a spinoculation procedure with the virus equivalent of 1 μg pNL4-3 Luc-E-R- or Δ Vif pNL4-3 Luc-E-R- (as measured using p24 ELISA). […] H9 total cell lysates were then prepared, and 20 μg of lysate examined for the presence of cyclin T1, endogenous APOBEC3G, p24, and Vif, the latter two indicative of virus infection.

For experiment [8], the target named is T1, Vif. The experiment in a line: Vif protein levels in H9 versus MT4 cells infected with pNL4-3Luc-E-R-. The format is cell-based, HIV-1. Conditions: 50 μM; 48 hours. As for the experimental part:
To determine whether there was a difference in the effect of Vif inhibitor 1 on Vif protein levels in permissive versus non-permissive cells, H9 and MT4 cells were infected using a spinoculation procedure with the virus equivalent of 1 μg pNL4-3 Luc-E-R- or Δ Vif pNL4-3 Luc-E-R- (as measured using p24 ELISA). Immediately following infection, H9 or MT4 cells were washed and incubated in complete RPMI medium with 10% FCS containing DMSO (0.5%) or 50 μM Vif inhibitor 1 (also 0.5% DMSO) for 48 hours. H9 or MT4 total cell lysates were then prepared, and 20 μg of lysate was examined for the presence of cyclin T1, endogenous APOBEC3G, p24, and Vif, the latter two being indicative of virus infection.

Experiment [9] deals with T2, pNLA1-YFP (Vif activity) (Human immunodeficiency virus type 1 group M subtype B, UniProt P69723).
T2 construct: YFP; expressed in transfected cells; host or cells: 293T cells
The experiment in a line: pNLA1-YFP fluorescence in transfected 293T cells. The class given is cell-based, HIV-1. The settings on record: 3.125-50 μM, with or without 15 fmoles pAPOBEC3G-HA, 24 hours. As for the experimental part:
293T cells transfected with 50 fmoles pNLA1-YFP or pNLA1-YFP with 15 fmoles pAPOBEC3G-HA were treated 4 HRS post-transfection with 3.125, 6.25, 12.5, 25, 50 μM Vif inhibitor 1 or DMSO equivalent (0). Twenty-four hours post-drug addition, 293T total cell lysates were prepared and normalized to equal protein amounts prior to being monitored, in triplicate, for YFP fluorescence. Curve fits for full dose responses of Vif inhibitor 1 are shown, and calculation of “% Vif activity” for concentration of compound Vif inhibitor 1 was determined using Grafit software.

The structures appear in SMILES notation.

T1 sequence (P12504 whole entry): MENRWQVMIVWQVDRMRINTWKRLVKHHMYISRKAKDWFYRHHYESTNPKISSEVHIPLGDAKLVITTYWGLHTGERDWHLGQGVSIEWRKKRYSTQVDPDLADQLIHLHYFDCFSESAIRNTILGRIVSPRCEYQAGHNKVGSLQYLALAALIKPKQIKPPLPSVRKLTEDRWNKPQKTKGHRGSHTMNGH
T2 sequence (P69723 whole entry): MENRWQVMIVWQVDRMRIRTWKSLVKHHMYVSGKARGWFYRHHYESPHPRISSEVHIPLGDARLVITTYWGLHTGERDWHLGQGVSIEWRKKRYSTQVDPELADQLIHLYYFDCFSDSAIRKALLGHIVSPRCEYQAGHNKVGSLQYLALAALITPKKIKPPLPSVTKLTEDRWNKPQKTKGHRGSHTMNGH

Take `COc1ccccc1NC(=O)c1ccccc1Sc1ccc([N+](=O)[O-])cc1` [Vif inhibitor 1, 2-(4-Nitrophenylthio)-N-(2-methoxyphenyl)benzamide]: the “RT activity / infectivity, dose response” value in experiment [1] is given as “inhibits RT activity in a dose dependent manner”; in [1] (listed as Vif Inhibitor 1) it was “dose-dependent decrease in infectivity”. Besides, the IC50 in [1] (Human immunodeficiency virus 1, 168 h, 0-50 μM, determined on day 7, read-out: I.C.50 of RT activity (% relative infectivity)) is roughly 6.4 µM. The Vif expression result in experiment [2] is “decreases Vif expression”. The APOBEC3G expression result in experiment [3] is reported as “increases APOBEC3G expression”. In addition, in [4], the “Infectivity of virus produced from treated producer cells” value is reported as “decrease infectivity in a dose-dependent manner”. In addition, the APOBEC3G level result in [5] is listed as “increases”. The APOBEC3F level result in experiment [6] was “increases”. Besides, the “Levels of Vif protein in H9 cells” value in experiment [7] was “significantly reduces levels of Vif protein”. The “Levels of Vif protein, non-permissive H9 versus permissive MT4 cells” value in [8] is recorded as “significantly reduces levels of Vif protein in non-permissive H9 cells compared to permissive MT4 cells”. The “pNLA1-YFP fluorescence (% Vif activity)” value in experiment [9] was “dose-dependent decrease in pNLA1-YFP only in the presence of APOBEC3G”.
